From PMC9841533, “Microtubule-Stabilizing 1,2,4-Triazolo[1,5-a]pyrimidines as Candidate Therapeutics for Neurodegenerative Disease: Matched Molecular Pair Analyses and Computational Studies Reveal New Structure–Activity Insights” (Journal of Medicinal Chemistry, 2022)
Like-named read-outs stand apart in the source and are kept apart here.

Assays:
[1] = tested on: acetylated α-tubulin (AcTub) levels in QBI293 cells; set-up: method as in PMID 26980057, PMID 33411523; settings: activity reported in previous studies; cited from earlier work
[2] = tested on: total tubulin levels in HeLa cells; set-up: method as in earlier work; settings: 16 h incubation, ref 13 (Yang et al.); cited from earlier work
[3] = tested on: acetylated α-tubulin (AcTub) levels in QBI293 cells; experiment: QBI293 cell assay of MT stabilization: acetylated α-tubulin ELISA; format: cell-based
Method in brief: (§1)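 AcTub and α-Tub were quantified by ELISA in whole-cell extracts normalized by BCA protein and expressed relative to vehicle. AcTub changes were also scaled to a 100 nM reference stabilizer control.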

[4] = Brain-to-plasma ratio in mice; format: in vivo; settings: mouse, ip, 1 h post-administration, i.p. 1.5 mg/kg, read-out: brain-to-plasma ratio (B/P)
[5] = Plasma pharmacokinetics in CD-1 mice; format: in vivo, mouse; settings: male, mouse
Procedure: Studies to determine the pharmacokinetic properties of compounds 53 and 60 were conducted at Touchstone Biosciences (Plymouth Meeting, PA). For the determination of plasma pharmacokinetics, three male CD-1 mice (2–3 months of age) were injected i.v. (tail vein) with test compound at a dose of 5 mg/kg in a solution of 10% DMSO, 40% polyethylene glycol, and 50% water, and another three male CD-1 mice received oral gavage dosing of 60 formulated as above at a dose of 20 mg/kg. Blood samples were collected from the saphenous or submandibular veins at multiple time points after dosing and collected in Greiner MiniCollect K2EDTA tubes. Compound levels in plasma were determined by LC-MS/MS, using protocols similar to those previously described.[16],[22]

[6] = tested on: total α-tubulin (α-Tub) levels in QBI293 cells; experiment: QBI293 cell assay: total α-tubulin ELISA; format: cell-based
Method in brief: as §1

[7] = tested on: de-tyrosinated α-tubulin (GluTub) in brain of WT mice; experiment: Brain PD: Glu-tubulin in brain tissue after compound treatment; format: in vivo, mouse; settings: WT CD-1 mice, 1 mg/kg i.p. once daily for two consecutive days
Procedure: Finally, to evaluate target engagement in the CNS, PD studies were conducted to determine compound-dependent elevations in the stable MT marker, de-tyrosinated α-tubulin (GluTub), in brain homogenates from compound-treated WT mice.
All animal protocols were approved by the University of Pennsylvania Institutional Animal Care and Use Committee (IACUC). […] Compounds were diluted from 20 or 40 mM DMSO stock solutions into 30% Kolliphor EL (Sigma-Aldrich) phosphate-buffered saline, pH 7.4. After 4 h following the second injection, mice were euthanized and cortices and hippocampi were isolated from each brain and placed in 0.2 mL of ice-cold radioimmunoprecipitation assay (RIPA) buffer (50 mM Tris, 150 mM NaCl, 5 mM EDTA, 0.5% sodium deoxycholate, 1% NP-40, 0.1% sodium dodecyl sulfate (SDS), pH 8.0) containing protease inhibitor (PI) cocktail (Sigma-Aldrich), 1 mM phenylmethylsulfonyl fluoride (PMSF) (Sigma-Aldrich), and 3 μM trichostatin A (TSA) (Sigma-Aldrich). The brain samples were homogenized with a handheld battery-operated mixer and subsequently sonicated. After centrifugation at 100,000g for 30 min at 4 °C, supernatant samples were transferred to a new tube and the pellets were resuspended in 0.15 mL of RIPA buffer and again homogenized, sonicated, and centrifuged. The supernatant from the second centrifugation was pooled with that from the first. The combined supernatant samples were assessed for protein concentration using a BCA assay (Thermo Fisher Scientific), and equal protein amounts from each brain sample underwent separation by 10% sodium dodecyl sulfate polyacrylamide gel electrophoresis (SDS-PAGE) followed by transfer onto nitrocellulose membranes essentially as previously described.[11] […] Incubation with infrared dye-conjugated secondary antibodies and subsequent imaging and quantification of the blots on the Odyssey imaging system were as described.[11]

For C[C@H](Nc1c(-c2c(F)cc(F)cc2F)c(Cl)nc2ncnn12)C(F)(F)F [Compound 2], the “Class (cellular phenotype)” value [1] is listed as “I” and the total tubulin levels [2] is listed as “reduction in total tubulin levels”.
For C[C@@H](Nc1c(-c2c(F)cc(C#CCCN(C)C)cc2F)c(Cl)nc2ncnn12)C(C)(C)C [Compound 60, (R)-5-Chloro-6-(4-(4-(dimethylamino)but-1-yn-1-yl)-2,6-difluorophenyl)-N-(3,3-dimethylbutan-2-yl)-[1,2,4]triazolo[1,5-a]pyrimidin-7-amine], the “AcTub (1 uM - normalized)” value ([3]; 1 uM compound, normalized) was 1.75, the “AcTub (10 uM - normalized)” value ([3]; 10 uM compound, normalized) was 1.28 and the fold induction at 1 µM ([3]; 4 h, 1 uM compound, read-out: AcTub (1uM)) was 9.5. The fold induction at 10 µM ([3]; 4 h, 10 uM compound, read-out: AcTub (10 uM)) was 6.94, the “AcTub 1 μM, fold-change compared to positive control compound 5 (100 nM) (in parentheses)” value ([3]; 4 h incubation, 1 μM) was 1.75 fold-change and the fold induction at 1 µM ([3]; 4 h incubation, 1 μM, read-out: AcTub 1 μM, fold-change compared to vehicle (DMSO)-treated cells) was 9.5 ± 0.34. The “AcTub 10 μM, fold-change compared to positive control compound 5 (100 nM) (in parentheses)” value ([3]; 4 h incubation, 10 μM) was 1.28 fold-change, the fold induction at 10 µM ([3]; 4 h incubation, 10 μM, read-out: AcTub 10 μM, fold-change compared to vehicle (DMSO)-treated cells) was 6.94 ± 0.22 and the Kp at 1 h [4] was about 0.5. The Vd at 24 h ([5]; iv, i.v. 5 mg/kg) was 4.8 L/kg, the clearance at 24 h ([5]; iv, i.v. 5 mg/kg) was 8.2 mL/min/kg and the half-life ([5]; iv, i.v. 5 mg/kg, read-out: half-life (T1/2)) was over 6 h. It also gave a half-life at 24 h ([5]; iv, i.v. 5 mg/kg, read-out: half-life (T1/2) (converted)) of 6.8 h, a bioavailability ([5]; oral, 5 mg/kg i.v. and 20 mg/kg p.o., read-out: oral bioavailability (F)) of over 50% and a bioavailability at 24 h ([5]; po, 5 mg/kg i.v. and 20 mg/kg p.o., read-out: oral bioavailability (F)) of 56%. For the same molecule, the fold induction at 1 µM ([6]; 4 h, 1 uM compound, read-out: AlfaTub (1uM)) was 0.94, the fold induction at 10 µM ([6]; 4 h, 10 uM compound, read-out: AlfaTub (10 uM)) was 0.98 and the fold induction at 1 µM ([6]; 4 h incubation, 1 μM, read-out: α-Tub 1 μM, fold-change compared to vehicle (DMSO)-treated cells) was 0.94 ± 0.01. For the same molecule, the fold induction at 10 µM ([6]; 4 h incubation, 10 μM, read-out: α-Tub 10 μM, fold-change compared to vehicle (DMSO)-treated cells) was 0.98 ± 0.01 and the “brain GluTub (GluTub-to-total α-Tub ratio) relative to vehicle-treated mice” value [7] was “significant elevations in brain GluTub”.
